The results in this text go back to ChEMBL document CHEMBL1157055, “Limonoids and tirucallane derivatives from the seeds of a krishna mangrove, Xylocarpus moluccensis” (2010).

Structures are written as SMILES. Active and inactive are the calls of the source. The rule behind the calls is not given here.

For test [1], the system named is Brontispa longissima. The experiment in a line: Insecticidal activity against Brontispa longissima Gestro at 100 ug/ml. The class given is functional, organism-based.
In test [2] the test system is Brontispa longissima. The experiment in a line: Insecticidal activity against Brontispa longissima Gestro at 100 ug/ml after 72 hrs. The class given is functional.
For test [3], the system named is Brontispa longissima. The experiment in a line: Insecticidal activity against Brontispa longissima Gestro at 100 ug/ml after 96 hrs. The class given is functional.

With `CC[C@H](C)C(=O)O[C@@]12C(=O)C3=C(CC[C@]4(C)C3=CC(=O)O[C@H]4c3ccoc3)[C@]3(C)[C@@H](CC(=O)OC)[C@](C)(C[C@]13O)[C@@H]2OC(=O)C(C)C`, the result with Brontispa longissima [1] was inactive.

As to `CC[C@H](C)C(=O)O[C@@]12C(=O)C3=C4CC(=O)O[C@@H](c5ccoc5)[C@]4(C)CC[C@@H]3[C@]3(C)[C@@H](CC(=O)OC)[C@](C)(C[C@@]31O)[C@@H]2OC(=O)C(C)C`, the result with Brontispa longissima [1] was inactive.

Turning to `CC[C@H](C)C(=O)O[C@@]12C[C@]3(C)[C@H](OC(=O)C(C)C)[C@]1(O)C(=O)C1=C(CC[C@]4(C)C1=CC(=O)O[C@H]4c1ccoc1)[C@]2(C)[C@H]3CC(=O)OC` [MOLUCCENSINS H], the Activity in the test on Brontispa longissima [2] came out at 20.7%; in the test on Brontispa longissima [3], 27.6%.

As to `CC[C@H](C)C(=O)O[C@H]1[C@@]2(C)C[C@@]3(OC(=O)[C@@H](C)CC)[C@](C)([C@H]4CC[C@]5(C)C(=C4C(=O)[C@@]13O)CC(=O)O[C@H]5c1ccoc1)[C@H]2CC(=O)OC`, the result in the test on Brontispa longissima [1] was inactive.
